The source of these data is article doi:10.1101/2025.02.26.640266v1, “Predicting PROTAC-targeted Degradation and Designing Androgen Receptor Degraders with AiPROTAC” (biorxiv, 2025).

The assay addresses CRBN (human cereblon) (Homo sapiens, UniProt Q96SW2). Put plainly: HTRF human cereblon binding kit (competition). For orientation: In TR-FRET formats the signal depends on donor and acceptor labels being close together.

By IC50 is commonly meant the midpoint of a concentration-inhibition curve. A low value points to higher potency. Consider `CC1(C)[C@H](NC(=O)c2ccc(N3CCN(CCCSc4ccc5c(c4)CN(C4CCC(=O)NC4=O)C5=O)CC3)nc2)C(C)(C)[C@H]1Oc1ccc(C#N)c(Cl)c1` (stereo partly shown) [GT19, PROTAC GT19], for which the 50% inhibitory concentration (IC50) came to 150 nM.
